Assay results as given in patent publication US8202865B2, “Oxadiazole derivatives” (Merck Serono SA, priority 2007, dated 2012).
Structures can show the parent of a compound that is named as a salt.

What follows are molecules tested against T1, S1P1 (Homo sapiens, UniProt P21453) (assay: 35S-GTPγS binding, S1P1 membranes). Details: membranes from CHO cells expressing S1P1; 60 min 30° C.
T1 construct: expressed in transfected cells; host or cells: CHO cells (membranes)
Assay type: biochemical
Description: Receptor binding assay: Membranes were prepared from CHO cells expressing S1P1 or S1P3 for use in ligand and […] binding studies. Cells were suspended in 50 mM TRIS, pH 7.4, 2 mM EDTA, 250 mM Sucrose (buffer A) and 1× Complete protease inhibitor cocktail (Roche), and disrupted at 4° C. by N2 decompression using a cell disruption bomb (Parr Instrument). Following centrifugation at 1000 RPM for 10 min at 4° C., the supernatant was suspended in buffer A and centrifuged again at 19000 RPM for 60 min at 4° C. The pellet was then suspended in 10 mM HEPES, pH 7.4, 1 mM EDTA, 250 mM Sucrose (Buffer B), and 1× Complete EDTA-free protease inhibitor cocktail and homogenized using a potter. Membranes were flash frozen in liquid N2 and stored at −80° C. [33P]sphingosine 1-phosphate (3000 Ci/mmol; American Radiolabeled Chemicals, Inc.) was added to test compounds in DMSO. Membranes and WGA SPA beads (GE Healthcare) were added to give a final volume of 100 μl in 96-well plates with assay concentrations of 25 pM or 10 pM [33P]sphingosine 1-phosphate (respectively for S1P1 or S1P3), 50 mM HEPES, pH 7.5, 5 mM MgCl2, 100 mM NaCl, 0.4% fatty acid-free BSA, 1-5 μg/well of proteins and 100 μg/well of WGA SPA beads. Binding was performed for 60 min at RT on a shaker and bound radioactivity was measured on a PerkinElmer 1450 MicroBeta counter. Specific binding was calculated by subtracting remaining radioactivity in the presence of 1000-fold excess of unlabeled S1P. Binding data were analyzed using the GraphPad Prism program.
Measurements of ^35S-GTPγS Binding: Membranes (1 to 10 μg protein) prepared as described above, were incubated in 96-well Scintiplates (PerkinElmer) with test compounds diluted in DMSO, in 180 μl of 20 mM HEPES, pH 7.4, 10 mM MgCl2, 2 μg/well Saponin, 0.2% fatty acid free BSA (Assay buffer), 140 mM NaCl and 1.7 μM GDP. The assay was initiated with the addition of 20 μl of 1.5 nM [35S]-GTPγS (1100 Ci/mmol; GE Healthcare) in assay buffer. After 60 min incubation at 30° C. on a shaker, plates were centrifuged for 10 min at 2000 RPM. Supernatant was discarded and membrane bound radioactivity was measured on a PerkinElmer 1450 MicroBeta counter. Triplicate samples were averaged and expressed as % response relative to S1P activation in absence of compound (n=2).

T1 sequence (P21453 whole entry, species assumed): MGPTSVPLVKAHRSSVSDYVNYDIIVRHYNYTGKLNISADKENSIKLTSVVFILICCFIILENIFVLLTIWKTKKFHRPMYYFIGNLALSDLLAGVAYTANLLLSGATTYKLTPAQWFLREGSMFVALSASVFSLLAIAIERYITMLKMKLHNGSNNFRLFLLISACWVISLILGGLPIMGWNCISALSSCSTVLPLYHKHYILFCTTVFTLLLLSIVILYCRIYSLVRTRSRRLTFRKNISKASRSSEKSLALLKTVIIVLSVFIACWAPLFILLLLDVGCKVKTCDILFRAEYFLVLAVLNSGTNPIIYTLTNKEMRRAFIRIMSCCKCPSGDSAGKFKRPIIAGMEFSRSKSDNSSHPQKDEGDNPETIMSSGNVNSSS

Row | SMILES | EC50 [nM]
1 | COCC#Cc1cc(-c2nc(-c3ccc(C(=O)O)c(F)c3)no2)ccc1-c1ccccc1C [Example 96, 2-fluoro-4-{5-[2-(3-methoxyprop-1-yn-1-yl)-2′-methylbiphenyl-4-yl]-1,2,4-oxadiazol-3-yl}benzoic acid] | 462
2 | COCCNC(=O)c1cccc(-c2noc(-c3ccc(-c4ccccc4C)c(COC)c3)n2)c1 [Example 181, N-(2-methoxyethyl)-3-{5-[2-(methoxymethyl)-2′-methylbiphenyl-4-yl]-1,2,4-oxadiazol-3-yl}benzamide] | 16
3 | COCc1cc(-c2nc(-c3cc(F)c(C(=O)O)cc3OC)no2)ccc1-c1ccccc1C [Example 112, 2-fluoro-5-methoxy-4-{5-[2-(methoxymethyl)-2′-methylbiphenyl-4-yl]-1,2,4-oxadiazol-3-yl}benzoic acid] | 102
4 | COc1cc(C(=O)O)ccc1-c1noc(-c2ccc(-c3ccccc3C)c(C)c2)n1 [Example 45, 4-[5-(2,2′-dimethylbiphenyl-4-yl)-1,2,4-oxadiazol-3-yl]-3-methoxybenzoic acid] | 4480
5 | Cc1ccccc1-c1ccc(-c2nc(-c3ccc(O)c(C(=O)O)c3)no2)cc1C [Example 43, 5-[5-(2,2′-dimethylbiphenyl-4-yl)-1,2,4-oxadiazol-3-yl]-2-hydroxybenzoic acid] | 4360
6 | COCc1cc(-c2nc(-c3cc(Cl)c(C(=O)O)cc3F)no2)ccc1-c1ccccc1C [Example 109, 2-chloro-5-fluoro-4-{5-[2-(methoxymethyl)-2′-methylbiphenyl-4-yl]-1,2,4-oxadiazol-3-yl}benzoic acid] | 90
7 | COc1ccc(-c2ccc(-c3nc(-c4ccc(C(=O)O)c(F)c4)no3)cc2C)c(OC)c1 [Example 20, 4-[3-(2′,4′-dimethoxy-2-methylbiphenyl-4-yl)-1,2,4-oxadiazol-3-yl]-2-fluorobenzoic acid] | 10900
8 | Cc1ccccc1-c1ccc(-c2nc(-c3ccc(C(=O)O)c(F)c3)no2)cc1OCC(C)C [Example 104, 2-fluoro-4-[5-(2-isobutoxy-2′-methylbiphenyl-4-yl)-1,2,4-oxadiazol-3-yl]benzoic acid] | 800
9 | Cc1ccccc1-c1ccc(-c2nc(-c3ccc(C(=O)O)cc3)no2)cc1C [Example 42, 4-[5-(2,2′-dimethylbiphenyl-4-yl)-1,2,4-oxadiazol-3-yl]benzoic acid] | 1690
10 | COCc1cc(-c2nc(-c3cccc(C(=O)NCCCC(=O)OC)c3)no2)ccc1-c1ccccc1C [Example 137, Methyl 4-[(3-{5-[2-(methoxymethyl)-2′-methylbiphenyl-4-yl]-1,2,4-oxadiazol-3-yl}benzoyl)amino]butanoate] | 25
11 | Cc1ccccc1-c1ccc(-c2nc(-c3ccc(C(=O)O)c(F)c3)no2)cc1S(C)(=O)=O [Example 83, 2-fluoro-4-{5-[2′-methyl-2-(methylsulfonyl)biphenyl-4-yl]-1,2,4-oxadiazol-3-yl}benzoic acid] | 3990
12 | COCc1cc(-c2nc(-c3ccc(C(=O)NC(C)(C)C(=O)O)c(F)c3)no2)ccc1-c1ccccc1C [Example 129, N-(2-fluoro-4-{5-[2-(methoxymethyl)-2′-methylbiphenyl-4-yl]-1,2,4-oxadiazol-3-yl}benzoyl)-2-methylalanine] | 40
13 | COc1ccc(OC)c(-c2ccc(-c3nc(-c4ccc(C(=O)O)c(F)c4)no3)cc2C)c1 [Example 24, 4-[3-(2′,5′-dimethoxy-2-methylbiphenyl-4-yl)-1,2,4-oxadiazol-3-yl]-2-fluorobenzoic acid] | 10400
14 | COCc1cc(-c2nc(-c3cc(C(=O)OC)ccc3OC)no2)ccc1-c1ccccc1C [Example 106, methyl 4-methoxy-3-{5-[2-(methoxymethyl)-2′-methylbiphenyl-4-yl]-1,2,4-oxadiazol-3-yl}benzoate] | 50
15 | COCc1cc(-c2nc(-c3ccc(C(=O)N(C)CC(=O)OC)c(F)c3)no2)ccc1-c1ccccc1C [Example 116, methyl N-(2-fluoro-4-{5-[2-(methoxymethyl)-2′-methylbiphenyl-4-yl]-1,2,4-oxadiazol-3-yl}benzoyl)-N-methylglycinate] | 240
16 | COCc1cc(-c2nc(-c3cccc(C(=O)NC4(C(=O)O)CC4)c3)no2)ccc1-c1ccccc1C [Example 133, 1-[(3-{5-[2-(methoxymethyl)-2′-methylbiphenyl-4-yl]-1,2,4-oxadiazol-3-yl}benzoyl)amino]cyclopropanecarboxylic acid] | 21.6
17 | CCc1cnc(CCNC(=O)c2ccc(-c3noc(-c4ccc(-c5ccccc5C)c(COC)c4)n3)cc2F)o1 [Example 176, N-[2-(5-ethyl-1,3-oxazol-2-yl)ethyl]-2-fluoro-4-{5-[2-(methoxymethyl)-2′-methylbiphenyl-4-yl]-1,2,4-oxadiazol-3-yl}benzamide] | 197

Other lines, results leading:

Row | EC50 [nM] | SMILES
18 | 9.6 | COCc1cc(-c2nc(-c3cccc(C(=O)NCCCC(=O)O)c3)no2)ccc1-c1ccccc1C [Example 139, 4-[(3-{5-[2-(methoxymethyl)-2′-methylbiphenyl-4-yl]-1,2,4-oxadiazol-3-yl}benzoyl)amino]butanoic acid]
19 | 10 | COCc1cc(-c2nc(-c3ccc(F)c(CN(C)CC(=O)O)c3)no2)ccc1OC(C)C [Example 158, N-(2-fluoro-5-{5-[4-isopropoxy-3-(methoxymethyl)phenyl]-1,2,4-oxadiazol-3-yl}benzyl)-N-methylglycine, Hydrochloride salt]
20 | 3450 | O=C(O)c1ccc(-c2noc(-c3ccc(N4CCOCC4)c(C(F)(F)F)c3)n2)cc1F [Example 17, 2-fluoro-4-{5-[4-morpholin-4-yl-3-(trifluoromethyl)phenyl]-1,2,4-oxadiazol-3-yl}benzoic acid]
21 | 9740 | O=C(O)c1ccc(-c2noc(-c3ccc([N+](=O)[O-])c(N4CCCCC4)c3)n2)cc1F [Example 21, 2-fluoro-4-[5-(4-nitro-3-piperidin-1-ylphenyl)-1,2,4-oxadiazol-3-yl]benzoic acid]
22 | 1.5 | COCc1cc(-c2nc(-c3cccc(OCCCC(=O)O)c3)no2)ccc1N1CCCCC1C (stereo not drawn) [Example 164, 4-(3-{5-[3-(methoxymethyl)-4-(2-methylpiperidin-1-yl)phenyl]-1,2,4-oxadiazol-3-yl}phenoxy)butanoic acid]
23 | 410 | COCc1cc(-c2nc(-c3ccc(C(=O)O)c(F)c3)no2)ccc1-c1cc(F)ccc1F [Example 91, 4-{5-[2′,5′-difluoro-2-(methoxymethyl)biphenyl-4-yl]-1,2,4-oxadiazol-3-yl}-2-fluorobenzoic acid]
24 | 274 | CCc1ccccc1-c1ccc(-c2nc(-c3ccc(C(=O)OC)c(F)c3)no2)cc1COC [Example 80, methyl 4-{5-[2′-ethyl-2-(methoxymethyl)biphenyl-4-yl]-1,2,4-oxadiazol-3-yl}-2-fluorobenzoate]
25 | 1.6 | COCc1cc(-c2nc(-c3ccc(OCCCC(=O)O)c(F)c3)no2)ccc1N1CCCCC1C (stereo not drawn) [Example 165, 4-(2-fluoro-4-{5-[3-(methoxymethyl)-4-(2-methylpiperidin-1-yl)phenyl]-1,2,4-oxadiazol-3-yl}phenoxy)butanoic acid]
26 | 485 | COCc1cc(-c2nc(-c3ccc(C(=O)OC)c(F)c3)no2)ccc1N1CCCCC1C (stereo not drawn) [Example 113, methyl 2-fluoro-4-{5-[3-(methoxymethyl)-4-(2-methylpiperidin-1-yl)phenyl]-1,2,4-oxadiazol-3-yl}benzoate]
27 | 0.4 | COCc1cc(-c2nc(-c3cccc(CNCCC(=O)O)c3)no2)ccc1-c1ccccc1C [Example 155, N-(3-{5-[2-(methoxymethyl)-2′-methylbiphenyl-4-yl]-1,2,4-oxadiazol-3-yl}benzyl)-beta-alanine, Hydrochloride salt]
28 | 257 | COCCOc1cc(-c2nc(-c3ccc(C(=O)O)c(F)c3)no2)ccc1-c1ccccc1C [Example 103, 2-fluoro-4-{5-[2-(2-methoxyethoxy)-2′-methylbiphenyl-4-yl]-1,2,4-oxadiazol-3-yl}benzoic acid]
29 | 58 | COCc1cc(-c2nc(-c3ccc(C(=O)NC4(C(=O)O)CC4)c(F)c3)no2)ccc1-c1ccccc1C [Example 120, 1-[(2-fluoro-4-{5-[2-(methoxymethyl)-2′-methylbiphenyl-4-yl]-1,2,4-oxadiazol-3-yl}benzoyl)amino]cyclopropanecarboxylic acid]
30 | 5.5 | CCOC(=O)CCCOc1ccc(-c2noc(-c3ccc(N4CCCCC4C)c(COC)c3)n2)cc1F (stereo not drawn) [Example 163, ethyl 4-(2-fluoro-4-{5-[3-(methoxymethyl)-4-(2-methylpiperidin-1-yl)phenyl]-1,2,4-oxadiazol-3-yl}phenoxy)butanoate]
